Columns and labels:
Tie2 receptor = molecular target: T1, Tie2 receptor (Homo sapiens, UniProt Q02763); assay: Cellular Tie2 autophosphorylation assay, Test (b); type: cell-based; conditions: Ang1 ligand stimulated whole cells (e.g. EA.hy926/B3), immunoprecipitation/western blot; read-out: IC50 (μM) Test (b): Inhibition of autophosphorylation of Tie2 receptor tyrosine kinase
T1 construct: one can use natural cell lines or primary cells which are known to express the receptor of choice; endogenous in cells; host or cells: EA.hy926/B3 cells (HUVEC named as an alternative)
From the text: b. Cellular Tie2 Autophosphorylation Assay
This assay is based on measuring the ability of compounds to inhibit autophosphorylation of the Tie2 receptor which normally leads to the production of “activated” receptor that in turn initiates the particular signal transduction pathways associated with the receptor function.
Autophosphorylation can be achieved by a number of means. It is known that expression of recombinant kinase domains in baculoviral systems can lead to the production of phosphorylated and activated receptor. It is also reported that over expression of receptors in recombinant cell lines can itself lead to receptor autophosphorylation in the absence of the ligand (Heldin C-H. 1995 Cell: 80, 213-223; Blume-J. P, Hunter T. 2001 Nature: 411, 355-65). Furthermore, there are numerous literature examples in which chimaeric receptors have been constructed. In these cases the natural, external cell surface domain of the receptor has been replaced with that of a domain which is known to be readily dimerised via the addition of the appropriate ligand (e.g. TrkA-Tie2/NGF ligand (Marron, M. B., et al., 2000 Journal of Biological Chemistry: 275:39741-39746) or C-fins-Tie-1/CSF-1 ligand (Kontos, C. D., et al., 2002 Molecular and Cellular Biology: 22, 1704-1713). Thus when the chimaeric receptor expressed in a host cell line and the respective ligand is added, this induces autophosphorylation of the chimeric receptor's kinase domain. This approach has the advantage of often allowing a known (and often easily obtained) ligand to be used instead of having to identify and isolate the natural ligand for each receptor of interest.
Naturally if the ligand is available one can use natural cell lines or primary cells which are known to express the receptor of choice and simply stimulate with ligand to achieve ligand induced phosphorylation. The ability of compounds to inhibit autophosphorylation of the Tie2 receptor, which is expressed for example in EA.hy926/B3 cells (supplied by J. McLean/B. Tuchi, Univ. of N. Carolina at Chapel Hill, CB-4100, 300 Bynum Hall, Chapel Hill, N.C. 27599-41000, USA) or primary HUVEC (human umbilical vein endothelial cells—available from various commercial sources), can measured by this assay.
Natural Ang1 ligand can be isolated using standard purification technology from either tumour cell supernatants or alternatively the Ang1 gene can be cloned and expressed recombinantly using stand molecular biology techniques and expression systems. In this case one can either attempt to produce the ligand either in its native state or as recombinant protein which for example may have been genetically engineered to contain additional of purification tags (eg. polyhistidine peptides, antibody Fc domains) to facilitate the process.
Using the ligand stimulation of either EA.hy926/B3 or HUVEC cellular Tie2 receptor as the example, a Ang1 ligand stimulated cellular receptor phosphorylation assay can be constructed which can be used to analyse to determine the potential of compounds to inhibit this process. For example EA.hy926/B3 cells were grown in the appropriate tissue culture media plus 10% foetal calf serum (FCS) for two days in 6 well plates starting with an initial seeding density of 5×10^5 cells/well. On the third day the cells were serum starved for a total of 2 hours by replacing the previous media with media containing only 1% FCS. After 1 hour 40 minutes of serum starvation the media was removed and replace with 1 ml of the test compound dilutions (compound dilutions made in serum starvation media yet keeping the DMSO concentration below 0.8%). After 1.5 hours of serum starvation orthovanidate was added to a final concentration of 0.1 mM for the final 10 minutes of serum starvation. […]

[1] = molecular target: T2, Tie2 receptor tyrosine kinase (Homo sapiens, UniProt Q02763); assay: In vitro receptor tyrosine kinase inhibition assay, Test (a) (ELISA); type: biochemical; conditions: recombinant human Tie2 kinase domain lysate, ATP 5 micromolar (or Km)
T2 construct: consist of only the intracellular portion C-terminal portion of the respective receptor, within which is found the kinase domain; made in house; host or cells: baculovirus/Sf21 insect cells (or alternative equivalent), used as cleared lysate
Experimental: a. In vitro Receptor Tyrosine Kinase Inhibition Assay
To test for inhibition of Tie2 receptor tyrosine kinase, compounds are evaluated in a non-cell based protein kinase assay by their ability to inhibit the protein kinase enzyme phosphorylation of a tyrosine containing polypeptide substrate in an ELISA based microtitre plate assay. In this particular case, the assay was to determine the IC50, for three different recombinant human tyrosine kinases Tie2, KDR and Flt.
To facilitate production of the tyrosine kinases, recombinant receptor genes were produced using standard molecular biology cloning and mutagenesis techniques. These recombinant proteins fragments encoded within these genes consist of only the intracellular portion C-terminal portion of the respective receptor, within which is found the kinase domain. The recombinant genes encoding the kinase domain containing fragments were cloned and expressed in standard baculovirus/Sf21 system (or alternative equivalent).
Lysates were prepared from the host insect cells following protein expression by treatment with ice-cold lysis buffer (20 mM N-2-hydroxyethylpiperizine-N′-2-ethanesulphonic acid (HEPES) pH7.5, 150 mM NaCl, 10% glycerol, 1% Triton X-100, 1.5 mM MgCl2, 1 mM ethylene glycol-bis (β-aminoethyl ether) N′,N′,N′,N′-tetraacetic acid (EGTA), plus protease inhibitors and then cleared by centrifugation. Tie2, KDR and Flt1 lysates were stored in aliquots at −80° C.
Constitutive kinase activity of these recombinant proteins was determined by their ability to phosphorylate a synthetic peptide (made up of a random co-polymer of Glutamic Acid, Alanine and Tyrosine in the ratio of 6:3:1). Specifically, Nunc Maxisorb™ 96-well immunoplates were coated with 100 microlitres of synthetic peptide Sigma P3899 (1 mg/ml stock solution in PBS diluted 1:500 in PBS prior to plate coating) and incubated at 4° C. overnight. Plates were washed in 50 mM HEPES pH 7.4 at room temperature to remove any excess unbound synthetic peptide.
The immobilised phospho-peptide product of the reaction was detected by immunological methods. Firstly, plates were incubated for 4 hours at room temperature with murine monoclonal anti-phosphotyrosin-HRP (Horseradish Peroxidase) conjugated antibodies (4G10 from Upstate Biotechnology UBI 16-105). Following extensive washing with PBS-T, HRP activity in each well of the plate was measured colorimetrically using 22′-Azino-di-[3-ethylbenzthiazoline sulfonate (6)]diammonium salt crystals ABTS (Sigma P4922—prepared as per manufactures instructions) as a substrate incubated for 30-45 minutes to allow colour development, before 100 ul of 1M H2SO4 was added to stop the reaction.
Quantification of colour development and thus enzyme activity was achieved by the measurement of absorbance at 405 nm on a Molecular Devices ThermoMax microplate reader. Kinase inhibition for a given compound was expressed as an IC50 value. This was determined by calculation of the concentration of compound that was required to give 50% inhibition of phosphorylation in this assay. The range of phosphorylation was calculated from the positive (vehicle plus ATP) and negative (vehicle minus ATP) control values.

T2 sequence (Q02763 770-1124 limits assumed): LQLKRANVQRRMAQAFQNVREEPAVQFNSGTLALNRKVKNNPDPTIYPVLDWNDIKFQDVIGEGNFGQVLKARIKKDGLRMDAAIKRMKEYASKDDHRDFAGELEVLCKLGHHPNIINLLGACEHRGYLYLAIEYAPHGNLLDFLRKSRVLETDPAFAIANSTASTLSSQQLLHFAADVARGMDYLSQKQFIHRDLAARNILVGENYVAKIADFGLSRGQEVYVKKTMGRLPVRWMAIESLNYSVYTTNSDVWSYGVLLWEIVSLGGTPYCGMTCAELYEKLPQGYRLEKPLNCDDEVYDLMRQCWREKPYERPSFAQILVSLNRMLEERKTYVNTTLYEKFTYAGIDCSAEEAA
T1 sequence (Q02763 23-1124): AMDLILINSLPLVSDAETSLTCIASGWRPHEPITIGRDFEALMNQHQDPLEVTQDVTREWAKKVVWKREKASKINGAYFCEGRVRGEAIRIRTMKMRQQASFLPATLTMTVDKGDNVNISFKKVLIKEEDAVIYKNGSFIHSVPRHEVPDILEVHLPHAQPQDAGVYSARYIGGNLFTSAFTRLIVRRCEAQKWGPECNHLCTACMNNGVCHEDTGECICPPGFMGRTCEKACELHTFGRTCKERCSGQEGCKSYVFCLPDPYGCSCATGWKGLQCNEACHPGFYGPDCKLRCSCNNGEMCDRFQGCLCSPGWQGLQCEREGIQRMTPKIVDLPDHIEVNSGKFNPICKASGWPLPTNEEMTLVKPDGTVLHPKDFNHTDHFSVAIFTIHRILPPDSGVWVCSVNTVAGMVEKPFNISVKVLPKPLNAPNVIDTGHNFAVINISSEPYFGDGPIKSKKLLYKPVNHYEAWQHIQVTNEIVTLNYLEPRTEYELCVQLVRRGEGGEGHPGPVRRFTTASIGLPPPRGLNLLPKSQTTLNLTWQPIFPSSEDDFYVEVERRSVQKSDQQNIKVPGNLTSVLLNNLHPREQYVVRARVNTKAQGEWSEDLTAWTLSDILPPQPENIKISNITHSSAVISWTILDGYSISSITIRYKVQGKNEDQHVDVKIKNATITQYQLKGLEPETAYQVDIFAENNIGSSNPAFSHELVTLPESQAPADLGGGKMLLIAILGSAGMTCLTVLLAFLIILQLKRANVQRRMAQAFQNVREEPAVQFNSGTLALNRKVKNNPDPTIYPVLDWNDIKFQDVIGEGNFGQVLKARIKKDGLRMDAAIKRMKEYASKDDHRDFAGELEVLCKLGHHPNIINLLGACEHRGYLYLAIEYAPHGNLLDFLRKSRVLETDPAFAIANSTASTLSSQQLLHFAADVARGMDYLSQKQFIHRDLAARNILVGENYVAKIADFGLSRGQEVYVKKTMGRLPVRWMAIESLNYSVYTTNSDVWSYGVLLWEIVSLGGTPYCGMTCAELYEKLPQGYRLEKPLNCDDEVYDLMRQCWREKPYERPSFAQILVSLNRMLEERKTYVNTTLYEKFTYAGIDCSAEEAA

Row | SMILES | IC50 (Tie2 receptor) [µM] | IC50 [1] [µM]
1 | Cc1ccc(CNC(=O)Nc2cccc(C#Cc3cnc(N)nc3)c2)o1 [Example 6, N-{3-[(2-aminopyrimidin-5-yl)ethynyl]phenyl}-N′-[(5-methyl-2-furyl)methyl]urea] | 1.7 | 20
2 | Cc1ccc(CNC(=O)Nc2cccc(C#Cc3cnc(NCCCN4CCCCC4)nc3)c2)o1 [Example 14, N-[(5-methyl-2-furyl)methyl]-N′-[3-({2-[(3-piperidin-1-ylpropyl)amino]pyrimidin-5-yl}ethynyl)phenyl]urea] | 0.38 | 20
3 | Cc1conc1CNC(=O)Nc1cccc(C#Cc2c(N)ncnc2N)c1 [Example 50, N-{3-[(4,6-diaminopyrimidin-5-yl)ethynyl]phenyl}-N′-[(4-methylisoxazol-3-yl)methyl]urea] | 3.6 | 9
4 | Nc1ncc(C#Cc2cccc(NC(=O)NC(CCO)c3ccccc3)c2)cn1 (stereo not drawn) [Example 12, N-{3-[(2-aminopyrimidin-5-yl)ethynyl]phenyl}-N′-(3-hydroxy-1-phenylpropyl)urea] | 1.3 | 25
5 | Nc1ncnc(N)c1C#Cc1cccc(NC(=O)NCC2CCCO2)c1 (stereo not drawn) [Example 47, N-{3-[(4,6-diaminopyrimidin-5-yl)ethynyl]phenyl}-N′-(tetrahydrofuran-2-ylmethyl)urea] | 1.9 | 1.5
6 | Nc1ncnc(N)c1C#Cc1cccc(NC(=O)NCc2cccnc2)c1 [Example 45, N-{3-[(4,6-diaminopyrimidin-5-yl)ethynyl]phenyl}-N′-(pyridin-3-ylmethyl)urea] | 0.2 | 3.3

Reference: US20100048543A1, “PYRIMIDINE COMPOUNDS HAVING TIES (TEK) INHIBITORY ACTIVITY” (ASTRAZENECA AB, priority 2005, published 2010)
